Measured values as given in PMC467089, “Click estradiol dimers with novel aromatic bridging units: synthesis and anticancer evaluation” (Journal of Enzyme Inhibition and Medicinal Chemistry, 2024).
“Also recorded” adds a separate entry of the source.

Tests used:
porcine brain tubulin = target: T1, porcine brain tubulin (Sus scrofa, UniProt P02550+P02554); assay: Tubulin polymerisation assay; assay type: biochemical; conditions: for inhibitory activity against tubulin polymerisation (in words): 10 μmol/L, Vmax relative to DMSO; for IC50: dose-response, mean ± SD of two independent experiments, read-out: IC50 inhibition of tubulin assembly; for inhibition at 10 µM: read-out: Tubulin polymerisation inhibition
T1 construct: purchased Cytoskeleton, Denver, CO; host or cells: porcine brain (tissue-purified)
Summary of the method: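 Polymerisation of >99% pure porcine brain tubulin followed at 37 °C with a commercial kit, with test compounds at 10 μmol/L or DMSO. Maximum polymerisation velocity (Vmax) derived from the polymerisation curves.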

U2OS cells = assay: Immunofluorescence of microtubules / mitotic spindle; assay type: cell-based, human; conditions: 10 µM, 24-h incubation
From the text: In addition, the presence of aster-like tubulin structures indicated the failure in microtubule elongation (Figure 4, ED5). […] The observed intracellular effects of ED3 and ED5 are consistent with data from in vitro assembly assays and cell cycle analyses, thereby strongly supporting the proposed antimitotic mechanisms of these EDs. […] Importantly, cytotoxic IC50 values may vary depending on the duration of exposure to the drug. A more extended exposure could lead to a decrease in the IC50 value, and vice versa. This temporal factor could also contribute to the observed differential sensitivity among the cell lines. The detailed mechanism and the extent to which these cellular and molecular dynamics (MD) contribute to the observed phenomenon might necessitate further investigation and experimentation.
U2OS cells, cultivated on coverslips, underwent a PBS wash and were then fixed in a solution of 3% paraformaldehyde in a buffer containing 10 mM MES, 150 mM NaCl, 5 mM EGTA, 5 mM MgCl2, 5 mM glucose, adjusted to a pH of 6.1. The nuclei were made visible using Hoechst 33342. Subsequently, a 60-min blocking step with 5% goat serum in PBS (SpinChem, Seattle, WA) was followed by a 60-min incubation with α-tubulin (DM1A) mouse monoclonal antibody (Cell Signaling, Danvers, MA) in PBS supplemented with 1% BSA and 0.3% Triton X-100. Visualisation was achieved using Alexa Fluor-488 conjugated anti-mouse antibodies (Life Technologies, Carlsbad, CA). Between each step, the samples underwent a series of three 5-min washes with PBS. Finally, the samples were mounted using Vectashield Mounting Medium with DAPI and imaged utilising a Zeiss spinning disk confocal microscope equipped with CSU-X1 unit (Yokogawa, Musashino, Japan)[10].

[1] = tested on: K562 (chronic myelogenous leukaemia); assay: MTS cytotoxicity assay, K562; assay type: cell-based; conditions: Homo sapiens, K562; MTS assay, 72-h incubation, mean ± SD of 3 independent experiments; read-out: IC50 cytotoxic activity K562
Summary of the method: (§1)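 Overnight-seeded cells → fourfold serial compound dilutions (DMSO) → 72 h, 37 °C, 5% CO2 → MTS added. Duplicates ×3 biological reps.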

[2] = tested on: HCT116p53−/− (p53 gene null variant of HCT116); assay: MTS cytotoxicity assay, HCT116p53−/−; assay type: cell-based; conditions: Homo sapiens, HCT-116; MTS assay, 72-h incubation, mean ± SD of 3 independent experiments; read-out: IC50 cytotoxic activity HCT116p53-
Summary of the method: as §1

[3] = MTS cytotoxicity assay, BJ; assay type: cell-based; conditions: human, BJ cells (non-tumour skin fibroblasts); MTS assay, 72-h incubation, mean ± SD of 3 independent experiments; read-out: IC50 cytotoxic activity BJ
Summary of the method: (§2)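 Culture medium carried 10% foetal calf serum plus antibiotics. Treatment lasted 72 h with a fourfold dilution series, followed by MTS detection, in technical duplicate across three biological replicates.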

[4] = MTS cytotoxicity assay, HUVEC; assay type: cell-based; conditions: human, HUVEC cells (umbilical vein endothelial cells); MTS assay, 72-h incubation, mean ± SD of 3 independent experiments; read-out: IC50 cytotoxic activity HUVEC
Summary of the method: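 Viability is measured by MTS after cells, seeded overnight, receive fourfold-diluted compounds for 72 h at 37 °C.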

[5] = tested on: A549 (lung adenocarcinoma); assay: MTS cytotoxicity assay, A549; assay type: cell-based, human; conditions: MTS assay, 72-h incubation, mean ± SD of 3 independent experiments; for IC50: Homo sapiens, A549, read-out: IC50 cytotoxic activity A549
Summary of the method: as §2

T1 sequence (P02550 whole entry): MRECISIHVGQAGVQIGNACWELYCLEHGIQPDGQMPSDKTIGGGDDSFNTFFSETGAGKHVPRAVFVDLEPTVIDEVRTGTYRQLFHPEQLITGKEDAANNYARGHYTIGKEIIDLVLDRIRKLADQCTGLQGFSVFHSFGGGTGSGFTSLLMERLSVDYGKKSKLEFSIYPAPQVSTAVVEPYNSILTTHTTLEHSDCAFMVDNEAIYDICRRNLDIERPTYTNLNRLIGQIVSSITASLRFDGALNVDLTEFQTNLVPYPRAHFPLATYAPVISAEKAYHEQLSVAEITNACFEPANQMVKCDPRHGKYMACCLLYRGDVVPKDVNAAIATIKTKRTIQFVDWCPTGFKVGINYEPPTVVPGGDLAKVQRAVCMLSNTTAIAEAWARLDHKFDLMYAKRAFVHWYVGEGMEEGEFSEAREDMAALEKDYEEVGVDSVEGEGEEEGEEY
T1 sequence (P02554 whole entry): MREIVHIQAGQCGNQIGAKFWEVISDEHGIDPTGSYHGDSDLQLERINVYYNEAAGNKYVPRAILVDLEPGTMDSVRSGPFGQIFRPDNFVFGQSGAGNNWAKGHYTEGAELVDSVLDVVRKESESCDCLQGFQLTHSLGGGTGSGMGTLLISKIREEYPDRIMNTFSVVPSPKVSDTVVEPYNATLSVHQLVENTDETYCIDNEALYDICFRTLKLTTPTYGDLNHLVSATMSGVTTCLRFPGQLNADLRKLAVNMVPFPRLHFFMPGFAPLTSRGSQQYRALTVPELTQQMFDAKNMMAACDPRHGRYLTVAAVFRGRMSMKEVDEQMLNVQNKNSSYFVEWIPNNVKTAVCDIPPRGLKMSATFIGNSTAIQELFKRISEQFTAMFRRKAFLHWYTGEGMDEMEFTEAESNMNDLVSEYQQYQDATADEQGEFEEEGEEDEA

| Structure (SMILES) | inhibitory activity against tubulin polymerisation (in words) (porcine brain tubulin) | IC50 (porcine brain tubulin) [nM] | inhibition at 10 µM (porcine brain tubulin) [%] | microtubule organisation in mitotic cells (in words) (U2OS cells) | IC50 [1] [nM] | IC50 [2] [nM] | IC50 at 72 h [3] [nM] | IC50 at 72 h [4] [nM] | IC50 [5] [nM] | IC50 cytotoxic activity A549 [5] |
| --- | --- | --- | --- | --- | --- | --- | --- | --- | --- | --- |
| COc1cc(Cn2cc([C@]3(O)CC[C@H]4[C@@H]5CCc6cc(O)ccc6[C@H]5CC[C@@]43C)nn2)cc(Cn2cc([C@]3(O)CC[C@H]4[C@@H]5CCc6cc(O)ccc6[C@H]5CC[C@@]43C)nn2)c1 [ED3, (17β,17′β)-17,17′-[(5-Methoxybenzene-1,3-diyl)bis(methanediyl-1H-1,2,3-triazole-1,4-diyl)]bisestra-1,3,5(10)-triene-3,17-diol] | comparable or better inhibitory activity | 2240 ± 1540 | 31.6 | disruption in microtubule organisation | 330 ± 74 | 450 ± 39 | > 50000 | < 12.2 | 600 ± 47 |  |
| C[C@]12CC[C@@H]3c4ccc(O)cc4CC[C@H]3[C@@H]1CC[C@@]2(O)c1cn(Cc2cccc(Cn3cc([C@]4(O)CC[C@H]5[C@@H]6CCc7cc(O)ccc7[C@H]6CC[C@@]54C)nn3)n2)nn1 [ED, reference compound] |  | 2180 ± 1800 | 55.6 | disruption in microtubule organisation | 580 ± 230 | 900 ± 320 | > 50000 | 24.4 ± 17 | > 50000 |  |
| C[C@]12CC[C@@H]3c4ccc(O)cc4CC[C@H]3[C@@H]1CC[C@@]2(O)c1cn(Cc2cc(Cn3cc([C@]4(O)CC[C@H]5[C@@H]6CCc7cc(O)ccc7[C@H]6CC[C@@]54C)nn3)cc(OCCO)c2)nn1 [ED5, (17β,17′β)-17,17′-{[5-(2-Hydroxyethoxy)benzene-1,3-diyl]bis(methanediyl-1H-1,2,3-triazole-1,4-diyl)}bisestra-1,3,5(10)-triene-3,17-diol] | comparable or better inhibitory activity; also recorded: most potent inhibitor of in vitro tubulin polymerisation | 2010 ± 210 | 70.2 | disruption in microtubule organisation | 420 ± 44 | 1980 ± 170 | > 50000 | < 12.2 | > 50000 | did not exhibit activity |
